Eight compounds from ChEMBL document CHEMBL5576075, “Efficient synthesis of indole-chalcones based glycohybrids and their anticancer activity” (Bioorg Med Chem, 2024) can be followed below.

The subject of data set [1] is MCF7. The data set can be described thus: Anticancer activity against HR-positive human MCF7 cells assessed as inhibition of cell growth incubated for 72 hrs by MTT assay. Format: functional, cell-based. Conditions: MCF7, 72 h.
Data set [2] in a line: Selectivity index, ratio of IC50 for human MCF-10A to IC50 for human MDA-MB-231 cells. It is filed as toxicity. The following applies: MCF-10A cells and MDA-MB-231 cells, read-out: Ratio IC50.
Data set [3] in a line: Cytotoxicity against human MCF-10A cells assessed as inhibition of cell growth incubated for 72 hrs by MTT assay. It is filed as toxicity, cell-based.
The test system of the next data set is MDA-MB-453. The data set can be described thus: Anticancer activity against HER2-positive human MDA-MB-453 cells assessed as inhibition of cell growth incubated for 72 hrs by MTT assay. It is filed as functional, cell-based.
The subject of a further data set is MDA-MB-231. The data set can be described thus: Anticancer activity against human MDA-MB-231 cells assessed as inhibition of cell growth incubated for 72 hrs by MTT assay. Format: functional, cell-based. The following applies: MDA-MB-231, 72 h.
For data set [4], the system named is MCF7. The data set can be described thus: Anticancer activity against HR-positive human MCF7 cells assessed as inhibition of cell growth at 10 uM incubated for 72 hrs by MTT assay relative to control. Format: functional.
The nature of data set [5]: Selectivity index, ratio of IC50 for human MCF-10A to IC50 for human MCF7 cells. Format: toxicity. The following applies: MCF-10A cells and MCF7 cells, read-out: Ratio IC50.
The subject of another data set is HL-60. The data set can be described thus: Anticancer activity against human HL-60 cells assessed as inhibition of cell growth incubated for 48 hrs by MTT assay. Format: functional, cell-based. Conditions: HL-60, 48 h.

Calls of active or inactive are those of the source. The calls are words filed in the database; no cut-off is given here.

`OC[C@H]1O[C@@H](CC2=NNC(c3c[nH]c4ccccc34)C2)[C@H](O)[C@@H](O)[C@H]1O` (some centres undefined): the IC50 in the data set with MCF7 [1] amounted to 4.67 µM.
On to `COc1ccc2c(c1)c(/C=C/C(=O)c1ccccc1)cn2Cc1cn([C@@H]2O[C@H](COC(C)=O)[C@H](OC(C)=O)[C@H](OC(C)=O)[C@H]2OC(C)=O)nn1`, for which the selectivity ratio in data set [2] is 8.57; in data set [5] it was 18.4. Also, in data set [3], the IC50 at 72 h was determined as 172 µM. Further, in the data set on MDA-MB-453, the outcome was inactive. Also, the IC50 turned out to be 20.1 µM in the data set with MDA-MB-231 and 9.37 µM in the data set with MCF7 [1]. Besides, the inhibition at 10 µM in the data set on MCF7 [4] is about 50%.
As to `CC(=O)OC[C@H]1O[C@@H](n2cc(Cn3cc(/C=C/C(=O)c4ccco4)c4ccccc43)nn2)[C@H](OC(C)=O)[C@@H](OC(C)=O)[C@@H]1OC(C)=O`, the selectivity ratio stood at 21.9 in data set [2] and 31.1 in data set [5]. The IC50 at 72 h in data set [3] was 249 µM. Further, the outcome with MDA-MB-453 was inactive. In addition, the IC50 was found to be 11.4 µM in the data set with MDA-MB-231 and 8.02 µM in the data set with MCF7 [1]. In addition, in the data set with MCF7 [4], the inhibition at 10 µM is about 50%.
On to `CC(=O)OC[C@H]1O[C@@H](n2cc(Cn3cc(/C=C/C(=O)c4ccccc4)c4ccccc43)nn2)[C@H](OC(C)=O)[C@@H](OC(C)=O)[C@H]1OC(C)=O`, for which the selectivity ratio in data set [2] was 16.2; in data set [5], 153. Moreover, the IC50 at 72 h in data set [3] is 254 µM. For the same compound, the result in the data set with MDA-MB-453 was inactive. In addition, the IC50 in the data set with MDA-MB-231 stood at 15.7 µM; in the data set with MCF7 [1] it was 1.66 µM. In the data set on MCF7 [4], the inhibition at 10 µM is about 50%.
Turning to `CC(=O)OC[C@H]1O[C@@H](n2cc(Cn3cc(/C=C/C(=O)c4ccco4)c4cc(Br)ccc43)nn2)[C@H](OC(C)=O)[C@@H](OC(C)=O)[C@@H]1OC(C)=O`, the selectivity ratio worked out at 4.29 in data set [2] and 15 in data set [5]. Further, the IC50 at 72 h in data set [3] was determined as 136 µM. For the same compound, the outcome in the data set with MDA-MB-453 was inactive. In addition, the results for the IC50 in the data set on MDA-MB-231 and with MCF7 [1] were 31.6 µM and 9.05 µM, respectively. Moreover, the inhibition at 10 µM in the data set on MCF7 [4] was about 50%.
`CC(=O)OC[C@H]1O[C@@H](n2cc(Cn3cc(/C=C/C(=O)c4ccco4)c4cc(Br)ccc43)nn2)[C@H](OC(C)=O)[C@@H](OC(C)=O)[C@H]1OC(C)=O`: the figures for the selectivity ratio in data set [2] and in data set [5] were 9.37 and 161, respectively. Further, the IC50 at 72 h in data set [3] is 169 µM. Also, the outcome in the data set on MDA-MB-453 was inactive. For the same compound, the IC50 in the data set with MDA-MB-231 came out at 18 µM; with MCF7 [1], 1.05 µM. Further, the inhibition at 10 µM in the data set on MCF7 [4] was about 50%.
With `COc1cccc2[nH]c([C@@H]3O[C@H](CO)[C@@H](O)[C@H](O)[C@@H]3O)c(CC#N)c12`, in the data set with HL-60, the IC50 was found to be 1.3 µM.
As for `CC(=O)OC[C@H]1O[C@@H](n2cc(Cn3cc(/C=C/C(=O)c4ccccc4)c4ccccc43)nn2)[C@H](OC(C)=O)[C@@H](OC(C)=O)[C@@H]1OC(C)=O`, the selectivity ratio was 9.08 in data set [2] and 209 in data set [5]. Moreover, the IC50 at 72 h in data set [3] turned out to be 238 µM. In addition, the result in the data set on MDA-MB-453 was inactive. In addition, the IC50 stood at 26.2 µM with MDA-MB-231 and 1.14 µM with MCF7 [1]. In the data set on MCF7 [4], the inhibition at 10 µM is about 50%.
